Key:
U87 cells [1] = assay: in situ ligation of blunt-ended and 3′-T-OH overhanging oligonucleotide probes (DNA breaks); assay type: cell-based, human; settings: for number of 3′-T-OH overhang ends / overhanging cuts / number of blunt-ended breaks: 24 hrs after treatment at LD50 concentration; for blebbing of treated cells: microscopy
Experimental: U87, human glioblastoma, cells were obtained from the American TypeCulture Collection (ATCC) Manassas, Va. and grown as recommended in DMEM with penicillin/streptomycin and 10% FBS. Following 3 weeks of growth and splitting cells were plated into slide chambers (Lab-Tek Nalge Nunc International, Rochester, N.Y., USA) at 2×10^5 cells per mL, and were allowed to grow thereon for 24 hrs until confluence was reached.
Twenty-four hrs after treatment, all cells were fixed with 4% PFA for one hr and washed 3× in 0.1 M PBS, incubated in 0.1% Triton-X100® for 6 min and then washed in 0.1 M PBS buffer. Each slide was assayed for double-strand DNA blunt-ended and overhanging 3′-OH ends, and counterstained for DNA with YO-PRO-1®.
The 3′-OH T specific overhang and blunt-ended DNA probes, shown in FIG. 2A and FIG. 2B, were ligated to the known oligonucleotide standard phantoms the amine apex oligoneuleotides, or alternatively, to fixed permeabilized U87 cells. The sections were pre-incubated in the ligation buffer without the probe (66 mM Tris-HCl, pH 7.5, 5 mM MgCl2, 0.1 mM dithioerythritol, 1 mM ATP, and 15% polyethylene glycol-8000) to ensure even saturation. The buffer was aspirated, and the full ligation mix containing the ligation buffer with probe, 35 μg/μL, and 0.5 U/μL T4 DNA ligase (New England BioLabs; Ipswich, Mass., USA) was applied to the sections, which were then incubated in a humidified box overnight.
The 3′-OH T-specific overhanging- and blunt-ended DNA probes shown in FIG. 11B were ligated to oligonucleotide standard phantoms, mammary gland or to fixed, permeabilized U87 cells. The sections were pre-incubated with ligation buffer in the absence of the probe (66 mM-Tris HCl, pH 7.5, 5 mM MgCl2, 0.1 mM dithioerythritol, 1 mM ATP, and 15% polyethylene glycol-8000) to ensure even saturation. The buffer was aspirated and the full ligation mix [ligation buffer+probe (35 μg/μL) and T4 DNA ligase (0.5 U/μL)] was applied to the sections, which were then incubated in a humidified box overnight. Controls consisted of probe-ligated phantoms, which were then incubated with either EcoRI or BamHI, in the appropriate buffer for 4 hrs, washed, cover-slipped using Fluoromount-G™ (SouthernBiotech), and then sealed with nail varnish.
(§1) Human glioblastoma cells (U87) (American Type Culture Collection, Manassas, Va., USA), and grown as recommended in DMEM with penicillin/streptomycin and 10% FBS. Following 3-weeks' growth and splitting, 5 mL of cells were plated into microscope slide chambers (Lab-Tek) at […], and were allowed to grow in the slide chambers for 24 hrs, until they became confluent. […] 24 hrs after treatment, all cells were fixed with 2% PFA for 1 hr, washed 3× in 0.1 M PBS, then incubated in 0.1% Triton X-100® for 6 min and finally washed in 0.1 M PBS buffer. Each slide was assayed for double-strand blunt (red) and overhanging (blue) DNA damage, and counterstained for DNA with YO-PRO-1® (green) or for γH2A.X with an FITC-labeled IgG antibody (green).

U87 cells [2] = assay: ddTUNEL assay (3′OH DNA ends); assay type: cell-based, human; settings: for ddTUNEL: approximate concentration of the probe in the cells: U87 cells following treatment, nominal path length of 6 μm, control 3.7
Experimental: ddTUNEL reaction buffer was prepared fresh daily by diluting a previously-frozen) stock solution of ddTUNEL buffer 1:5, and solution of cobalt chloride 1:25.
Stock reaction buffer, 5×: 125 mM Tris-HCl, 1 M sodium cacodylate, 1.25 mg/mL BSA, pH 6.6. Stock reaction CoCl2 solution, 25×: 25 mM cobalt chloride.
1. Wash samples twice in ddTUNEL reaction buffer for 10 min each.
2. Incubate sections in ddTUNEL reaction solution for 1-2 h at 37-40° C. in humidified chamber or overnight at room temperature.
5. Incubate with fluorescently labeled avidin or streptavidin ([…]) for 30 min.
(§2) U87 human glioblastoma cells were grown in DMEM with penicillin/streptomycin and 10% fetal bovine serum (FBS) (Invitrogen). Following 3-weeks' growth, 5 mL of cells were plated into slide chambers (Lab-Tek, Nalge Nunc International, Rochester, N.Y., USA) at 2×10^5 cells per mL, and grown for 24 hrs at 37° C. in a 5% CO2 incubator. […] 24-hrs' later, cells were fixed with 2% PFA, then permeabilized in 0.1% Triton X-100® as described above.

U87 cells [3] = assay: Fpg-ddTUNEL assay (oxidized/acylated DNA bases), with or without NaBH4 reduction; assay type: cell-based, human; settings: for Fpg-ddTUNEL: approximate concentration of the probe in the cells: U87 cells following treatment, nominal path length of 6 μm, control 0.9; for effect of NaBH4 reduction on the Fpg-ddTUNEL signal / oxo-base levels: ethanolic NaBH4
Experimental: Each sample was incubated in 25 mM sodium borohydride in 70% ethanol for 30 min. The sample was then washed twice in 0.1 M PBS. Typically, a slide box was employed, and it was half-filled with reducing solution so that half the sample(s) on the slide were reduced.
The sample was washed twice in 10 mM HEPES, 10 mM NaCl, 2 mM EDTA and 0.1% BSA and then ≈50 μL of the same buffer containing 100 U/mL of Fpg was applied to each of the sections, which were then incubated in a humidified box for ≧4 hr. The sample was washed twice in 100 mM PBS, and then twice in NEBuffer3. Approximately 50 μL of the same buffer containing 100 U/mL of CIAP was then applied to each section, and incubated for ≧2 hrs.
1. After completing both ddTUNEL and CIAP-ddTUNEL, each sample is washed twice in Fpg-buffer (Affymetrix) for 10 min.
2. Samples are then incubated in 100 U/mL Fpg (Affymetrix) in Fpg Buffer for 2 hr at 37° C. (or, alternatively, overnight at room temperature).
Following ddTUNEL and CIAP-ddTUNEL, capping 3′OH/3′PO4 ends, samples were washed twice in 10 mM HEPES, 10 mM NaCl, 2 mM EDTA and 0.1% BSA and then ≈50 μL of the same buffer containing 100 U/mL of Fpg was applied to each of the sections, and then incubated in a humidified box ≧4 hrs. Each sample was washed twice in 100 mM PBS, twice in NEBuffer3 and ≈50 μL of the same buffer containing 100 U/mL of CIAP was applied to each section and incubated for ≧2 hr; samples then underwent a third round of ddTUNEL.
as §2

U87 cells [4] = assay: LD50 of stressors on the cells over a 24-hr incubation; assay type: cell-based, human
U87 cells [5] = assay: γ-H2A.X histone labelling with FITC-labeled antibody; assay type: cell-based, human; settings: 24 hrs
Experimental: FITC-labeled Anti-H2A.X histone monoclonal antibody (BioLegend, San Diego, Calif.) was used as an internal control for DNA breaks, at a 1/50 dilution after the samples were blocked with 10% horse serum.
as §1
After incubation with 10% horse sera and washing, Ser139-phosphorylated H2A.X histone was imaged using an FITC-labeled monoclonal antibody (Biolegend, San Diego, Calif., USA) (1:500) following the methods of the manufacturer. Immune cell marker CD3ε was imaged using an FITC-labeled monoclonal antibody (Santa Cruz Biotechnologies, Santa Cruz, Calif.) (also at 1:500) as recommended by the manufacturer.

[6] = system: normal human astrocytes (NHA); settings: ethylmercury treatment (FIG. 21)
Experimental: Normal human astrocytes (NHA) were obtained from Lonza (Walkersville, Md., USA) and grown subject to their recommendations. NHA were grown to confluency in Astrocyte Cell Basal Medium supplemented with 3% FBS, Glutamine, Insulin, fhEGF, GA-1000 and ascorbic acid in 16-well Lab-Tek slide chambers (Nalge Nunc, Rochester, N.Y., USA), in a total volume of 240 μL.
NHA were incubated for 1 hour with probes before fixation. Fixation in buffered paraformaldehyde (PFA) was performed in two stages. Firstly, a 50-4 aliquot of ice-cold 8% PFA was added to each well, then gently aspirated and the wells were twice washed with ice-cold 2% PFA and then allowed to completely fix at 4° C. After fixation, cells were washed twice in 1×PBS (Thermo Fisher Scientific, Rockford, Ill., USA). The tanks were then removed from the slides, the well area covered with Fluoromount-G (SouthernBiotech, Ill., USA), cover-slipped and sealed with nail varnish.
3% FCS was present in the NHA medium throughout the time-course. To generate the time-course shown in FIG. 17A and FIG. 17B, NHA were exposed to Mitotracker, H2DCFAM and Hoechst at t=0.

Structure (SMILES): O=NN(CCCl)C(=O)NCCCl [Carmustine, N,N′-bis(2-chloroethyl)-N-nitroso-urea]
- number of 3′-T-OH overhang ends / overhanging cuts (U87 cells [1]): ~350 per million base pairs
- number of blunt-ended breaks (U87 cells [1]): approximately 900 per million base pairs
- change in blunt-ended breaks (U87 cells [1]; 24 hrs, Example 2): massive increases
- increase in levels of overhangs (U87 cells [1]; 24 hrs, Example 2): more than an order of magnitude
- blebbing of treated cells (U87 cells [1]; 24 hrs): formation of small blebs
- ddTUNEL: approximate concentration of the probe in the cells (U87 cells [2]): 22.8 µM
- increase in ddTUNEL (U87 cells [2]; U87 cells, vs control): six-fold
- Fpg-ddTUNEL: approximate concentration of the probe in the cells (U87 cells [3]): 5.2 µM
- effect of NaBH4 reduction on the Fpg-ddTUNEL signal / oxo-base levels (U87 cells [3]; U87 cells): unaltered by reduction
- increase in Fpg-ddTUNEL (U87 cells [3]; U87 cells, vs control): six-fold
- LD50 (U87 cells [4]): 2.5 µM
- difference in cytosolic γ-H2A.X levels, carmustine-treated vs temozolomide-treated cells (U87 cells [5]): 10 fold
- transfer of γ-H2A.X into the cytosol (U87 cells [5]): transfer of γ-H2A.X into the cytosol

Structure (SMILES): C[CH2][Hg] [ethylmercury]
- formation of dichlorofluorescein from H2DCF-AM greater than superoxide/carbonyl formation [6]: approximately 20%

Structure (SMILES): OO [H2O2, hydrogen peroxide]
- blebbing of treated cells (U87 cells [1]; 24 hrs): formation of blebs
- ddTUNEL: approximate concentration of the probe in the cells (U87 cells [2]): 9.4 µM
- Fpg-ddTUNEL: approximate concentration of the probe in the cells (U87 cells [3]): 4.5 µM
- effect of NaBH4 reduction on the Fpg-ddTUNEL signal / oxo-base levels (U87 cells [3]; U87 cells): redox sensitive
- LD50 (U87 cells [4]): 1000 µM

Structure (SMILES): C[n+]1ccc(-c2cc[n+](C)cc2)cc1 [Paraquat]
- blebbing of treated cells (U87 cells [1]; 24 hrs): no blebbing apparent
- blebbing of treated cells (U87 cells [1]; 24 hrs, listed as paraquat): no evidence of blebbing
- ddTUNEL: approximate concentration of the probe in the cells (U87 cells [2]): 37.2 µM
- Fpg-ddTUNEL: approximate concentration of the probe in the cells (U87 cells [3]): 6.3 µM
- LD50 (U87 cells [4]): 300 µM
- share of γ-H2AX found in the cytosol (U87 cells [5]): 65%

Structure (SMILES): Cn1nnc2c(C(N)=O)ncn2c1=O [Temozolomide]
- number of 3′-T-OH overhang ends / overhanging cuts (U87 cells [1]): ~350 per million base pairs
- number of blunt-ended breaks (U87 cells [1]): approximately 900 per million base pairs
- difference in levels of blunt-end breaks vs control cells (U87 cells [1]; 24 hrs, Example 2): greater than 30 ×
- ddTUNEL: approximate concentration of the probe in the cells (U87 cells [2]): 8.7 µM
- Fpg-ddTUNEL: approximate concentration of the probe in the cells (U87 cells [3]): 13.7 µM
- LD50 (U87 cells [4]): 25 µM

Structure (SMILES): CCc1c2c(nc3ccc(OC(=O)N4CCC(N5CCCCC5)CC4)cc13)-c1cc3c(c(=O)n1C2)COC(=O)[C@]3(O)CC [Irinotecan, (S)-4,11-diethyl-3,4,12,14-tetrahydro-4-hydroxy-3,14-dioxo1H-pyrano[3′,4′:6,7]-indolizino[1,2-b]quinolin-9-yl-[1,4′bipiperidine]-1′-carboxylate]
- number of 3′-T-OH overhang ends / overhanging cuts (U87 cells [1]): 119 per million base pairs
- number of blunt-ended breaks (U87 cells [1]): 285 per million base pairs
- difference in overhang breaks vs control cells (U87 cells [1]; 24 hrs, Example 2): greater than 50 ×
- increase in number of blunt-ended breaks (U87 cells [1]; vs control cells (FIG. 7)): more than 50%
- increase in number of overhanging breaks (U87 cells [1]; vs control cells (FIG. 7)): ~3 fold
- ddTUNEL: approximate concentration of the probe in the cells (U87 cells [2]): 7.4 µM
- Fpg-ddTUNEL: approximate concentration of the probe in the cells (U87 cells [3]): 1.7 µM
- effect of NaBH4 reduction on the Fpg-ddTUNEL signal / oxo-base levels (U87 cells [3]; U87 cells): unaltered by reduction
